Consider 1 compound from patent publication US9539256B2 (THE BOARD OF REGENTS OF THE UNIVERSITY OF TEXAS SYSTEM, priority 2012, dated 2017).

Entries after “also recorded” stand apart in the source; their conditions may differ.

Data set [1] can be described thus: In vivo pharmacokinetic study, blood time-concentration curve. The following applies: single IP injection 10 mg/kg, mice. How it is done:
FIG. 19. Mice blood time-concentration curve of ESI-09.
To determine the bioavailability of EPAC inhibitors, an IP injection formulation was developed in which the compounds were dissolved in ethanol and then diluted 1:10 with a 10% Tween 80 in normal saline solution. This formulation was determined suitable by passing the simulated in vivo blood dilution assay. In vivo pharmacokinetic studies were performed in four week old female C57BL6/N mice.

Data set [2] addresses T1, EPAC2 (Mus musculus, UniProt Q9EQZ6).
T1 sequence (Q9EQZ6 1-1011): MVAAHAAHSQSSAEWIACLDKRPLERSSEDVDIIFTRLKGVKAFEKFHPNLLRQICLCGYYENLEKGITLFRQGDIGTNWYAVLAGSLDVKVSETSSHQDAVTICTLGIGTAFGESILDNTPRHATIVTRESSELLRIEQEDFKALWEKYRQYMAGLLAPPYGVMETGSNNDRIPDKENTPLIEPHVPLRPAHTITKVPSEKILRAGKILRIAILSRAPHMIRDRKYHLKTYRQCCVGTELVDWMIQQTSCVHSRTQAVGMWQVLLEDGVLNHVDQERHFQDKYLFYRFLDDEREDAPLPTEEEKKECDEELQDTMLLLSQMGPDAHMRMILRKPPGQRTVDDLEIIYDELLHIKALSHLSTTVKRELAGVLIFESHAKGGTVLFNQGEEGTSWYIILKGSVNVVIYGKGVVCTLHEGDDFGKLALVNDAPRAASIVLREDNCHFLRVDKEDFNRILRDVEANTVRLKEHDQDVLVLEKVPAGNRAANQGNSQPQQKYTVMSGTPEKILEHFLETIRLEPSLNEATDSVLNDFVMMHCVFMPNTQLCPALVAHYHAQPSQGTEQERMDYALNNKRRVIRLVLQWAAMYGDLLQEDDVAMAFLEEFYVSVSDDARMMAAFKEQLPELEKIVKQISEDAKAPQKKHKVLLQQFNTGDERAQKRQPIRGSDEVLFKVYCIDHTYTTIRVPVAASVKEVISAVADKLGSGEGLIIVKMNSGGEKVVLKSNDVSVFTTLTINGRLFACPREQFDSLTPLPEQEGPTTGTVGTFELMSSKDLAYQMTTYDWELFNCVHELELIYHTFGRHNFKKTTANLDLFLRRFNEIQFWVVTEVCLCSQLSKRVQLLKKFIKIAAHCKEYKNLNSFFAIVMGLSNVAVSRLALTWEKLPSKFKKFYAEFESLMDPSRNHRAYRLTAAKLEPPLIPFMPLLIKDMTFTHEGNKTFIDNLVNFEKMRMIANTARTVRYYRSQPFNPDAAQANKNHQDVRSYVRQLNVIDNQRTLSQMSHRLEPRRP
Put plainly: Rap1-GDP exchange (GEF) activity assay, EPAC2.
Experimental: Exchange of Mant-GDP by GDP was measured as a decrease in fluorescence intensity over time using a FluoroMax-3 spectrofluorometer with excitation/emission wavelengths set at 366/450 nm. Typically, decay in the fluorescence intensity was recorded over a time course of 6000 s with data points taken every 60 s.

In data set [3] the test system is CD4+CD25− (Tconv) proliferation in the presence Tregs. The experiment in a line: In vitro Treg suppression assay of Tconv proliferation. The data set is classed as cell-based, mice. The following applies: assay repeated in the presence of ESI-09; compared with Epac1 KO outcome. An excerpt: The suppressive potency of WT and Epac1 KO Tregs was examined using an in vitro assay that examines CD4+CD25− (Tconv) proliferation in the presence Tregs. Epac1 KO Tconv and WT Tconv proliferated at the same rate when cultured alone. The addition of WT Tregs suppressed the proliferation of both cell populations to the same extent, while the addition of Epac1 KO Tregs suppressed the proliferation of Epac1 KO Tconv to a much lesser degree than it did WT Tconv's.

The subject of data set [4] is pSTAT3 Y705. Put plainly: Leptin signaling in organotypic brain slice cultures, Western blotting. In kind it is cell-based, mice. Conditions: basal state and in response to leptin stimulation. How it is done: (§1) FIGS. 17A-17B. Pharmacological inhibition of EPAC reduces plasma leptin and enhances leptin signaling in hypothalamus (A) Western blotting of pSTAT3 Y705, total STAT3, SOCS3, SHP2 and α-tubulin in organotypic brain slices at hypothalamus level treated with leptin with or without EPAC specific inhibitor. (B) Plasma leptin levels of 8-week-old wild-type mice treated 3 weeks with vehicle or ESI-09 (50 mg/kg).
(§2) To explore the feasibility of increasing leptin sensitivity by targeting Epac1 using small molecules, organotypic brain slice cultures were prepared from 11-day old wild-type C57BL/6 mice. After 7 days ex vivo culture, treatment of the brain tissue with the Epac specific antagonist ESI-09 led to an enhanced pSTAT3 Y705 level both at the basal state and in response to leptin stimulation. […] These pharmacological data are in agreement with results obtained using Epac1 KO mice and further confirm that inhibition of Epac1 enhances leptin signaling in the hypothalamus. To further investigate the therapeutic potential of this small molecule, wild-type mice were with ESI-09 (50 mg/kg) or vehicle (corn oil) by oral gavage for 3 weeks.
(In general: A western blot detects proteins with antibodies after separation by electrophoresis.)

The test system of data set [5] is Plasma leptin. Put plainly: Plasma leptin of wild-type mice after 3 weeks treatment. The following applies: 50 mg/kg oral gavage for 3 weeks; relative to vehicle. In kind it is in vivo. How it is done:
as §1, §2

In data set [6] the test system is type I PKA holoenzyme. Put plainly: PKA counter screening, type I holoenzyme. In kind it is biochemical. Conditions: 25 μM compound. How it is done: (§3) Kinase activity of the type I and II PKA holoenzyme are measured spectrophotometrically in a 96-well plate with a coupled enzyme assay as described previously (Cook et al. (1982) Biochemistry 21: 5794-5799). In this assay, the formation of ADP is coupled to the oxidation of NADH by the pyruvate kinase/lactate dehydrogenase reactions so the reaction rate can be determined by following the oxidation of NADH, reflected by a decrease in absorbance at 340 nm. […] Reactions are pre-equilibrated at room temperature and initiated by adding the Kemptide substrate (final concentration 0.26 mM).
On the technique in general: Counterscreens check selectivity or assay interference.

The subject of data set [7] is AsPC-1 and PANC-1 cells. Put plainly: Pancreatic cancer cell viability, alamar blue assay. In kind it is cell-based. Also noted: dose or concentration left out as unconfirmed. Conditions: ESI-09 for 24 hours and 48 hours. How it is done:
FIG. 11. Effects of ESI-09 treatment on pancreatic cancer cell viability. AsPC-1 and PANC-1 cells were treated with vehicle control (open bars) or with […] ESI-09 (filled bars) for 24 hours and 48 hours. Cell viability was measured by a fluorometric alamar blue assay. Bars represent mean±s.d. (n=3).
(In general: The colour change of resazurin is a common sign of viable cells or microbes.)

Data set [8] deals with R. australia. Put plainly: Lethal-dose R. australia infection of mice. In kind it is in vivo. Conditions: WT C57BL/6 mice, 10 mg/kg, IP daily. How it is done: FIG. 21. ESI-09 treatment protects mice from lethal-dose infection of R. australia. WT C57BL/6 mice were treated with vehicle or ESI-09 (10 mg/kg, IP) daily. Five days after the treatment, mice were challenged with lethal dose of R. australia and continued ESI-09 daily treatment. Severity of illness and survival rate were monitored.
To test if EPAC inhibitors are capable of protecting mice from lethal-dose infection of R. australia. WT C57BL/6 mice were treated with vehicle or ESI-09 (10 mg/kg, IP) daily. Five days after the treatment, mice were challenged with lethal dose of R. australia and continued ESI-09 daily treatment.

Data set [9] has as its system type II PKA holoenzyme. Put plainly: PKA counter screening, type II holoenzyme. In kind it is biochemical. The following applies: 25 μM compound. How it is done: as §3

The term half-life denotes the time in which the quantity being followed falls by half. Usually IC50 stands for the concentration needed to halve the response being measured.

`CC(C)(C)c1cc(C(=O)C(C#N)=NNc2cccc(Cl)c2)no1` [ESI-09, 3-(5-Tert-Butyl-Isoxazol-3-Yl)-2-[(3-Chlorophenyl)-Hydrazono]-3-Oxo-Propionitrile]: in data set [1] (female, C57BL6/N, mouse, whole blood), the half-life was 3.5 h. In addition, in data set [1], the “blood levels, maximal values” is 42,520 ng/ml and the “time of maximal blood level” value amounted to 0.5 h. The compound further came in with an IC50 in data set [2] of 1400 ± 100 nM. The “Tregs mediated suppression of Tconv” value in [3] was “the outcome was similar”. Further, the “pSTAT3 Y705 level” value in data set [4] is reported as “enhanced”. Also, the Plasma leptin entry in data set [5] is “significantly reduced”. For the same compound, the “cAMP-induced type I PKA holoenzyme activation” value in data set [6] is “did not significantly alter”. Besides, the “cell proliferation and viability” value in [7] is listed as “did not significantly affect”. Also, in data set [8], the “protection of R. australia infection” value is “striking protection; also recorded: protects” and the “treatment group showing sign of sickness” value turned out to be 10%. Besides, the “cAMP-induced type II PKA holoenzyme activation” value in data set [9] is on record as “did not significantly alter”.
